For data set [1], the system named is HUVEC. Nature of the data set: HUVEC cell proliferation assay (CyQUANT). In kind it is cell-based, human. As for the experimental part: Cell Proliferation Assay. HUVEC were plated at a density of 5000 cells/well in media depleted of fetal calf serum (FCS) overnight to allow the cells to become quiescent. Fresh media containing 5% FCS, 10 ng/ml basic fibroblast growth factor (bFGF) and 3 ng/ml vascular endothelial growth factor (VEGF) were added to the wells along with angiostatin (1.0 μM), antibody directed against the recombinant human alpha-subunit of ATP synthase (1:10 dil), antibody directed against the recombinant human beta-subunit of ATP synthase (1:10 dil), pre-immune serum (1:10 dil) or cycloheximide ([…]). Cell density was measured after 24 hrs using CyQUANT Cell Proliferation Assay Kit (Molecular Probes) in a fluorometric plate reader (Molecular Devices). The absorbance values used to calculate the percent proliferation of the cells ranged from 1.24 or 1.00 for treated and 2.57 for untreated.

The target of data set [2] is T1, purified bovine F1 ATP synthase (Bos taurus, UniProt P00829+P19483).
T1 construct: from tissue; host or cells: bovine heart mitochondria
Nature of the data set: F1 activity assay (ATPase, coupled NADH oxidation at 340 nm). The class given is biochemical. The note with it: NaN3 2%. The procedure: FIG. 12 is a bar graph showing the inhibition of purified F1 ATP synthase by angiostatin. Purified F1 ATP synthase activity was measured spectrophotometrically at λ=340 nm by coupling the production of ADP to the oxidation of NADH via the pyruvate kinase and lactate dehydrogenase reaction in which a decrease in the absorbance at λ=340 nm indicates active protein (dark six membered rings). […] Control antibodies had no effect on activity (light circles and squares). Representative data shown, n=3.
Purification of Bovine Heart F1 ATP Synthase and F1 Activity Assay. Fresh bovine heart mitochondria were obtained as previously described (23) and sonicated to yield sub-mitochondrial particles (24). The F1 portion was separated from membrane-bound FO by chloroform extraction. The aqueous layer was centrifuged at 105,000×g to remove particulate matter before purifying over an S300 gel filtration column. […] ATPase activity was measured spectrophotometrically by monitoring at λ=340 nm by coupling the production of ADP to the oxidation of NADH via pyruvate kinase and lactate dehydrogenase reactions as described in Zheng,& Ramirez, Biochem Biophys Res Commun 261(25):499-503 (1999).

The target in data set [3] is T2, ATP synthase on the surface of HUVEC (Homo sapiens, UniProt P05496+P06576+P25705).
T2 construct: endogenous in cells; host or cells: HUVEC (primary human umbilical vein endothelial cells)
Nature of the data set: Cell-surface ATP generation by bioluminescent luciferase assay. The note with it: oligomycin (0.1 mg/mL per method), 50 μM ADP. In kind it is cell-based. As for the experimental part:
Cell-surface ATP Assay. […] Cells were treated with (1 μM) angiostatin or (0.1 mg/mL) oligomycin for 1 hr at 37° C. All cells were then incubated with 0.1 Ci ^32P and 0.1 Ci ([…]) [2,8-^3H]-ADP (NEN Life Sciences) for 1 min. Supernatants were removed and centrifuged before assaying for ATP production by thin layer chromatography (TLC) or by firefly luciferase assay. ATP Generation by Bioluminescent Luciferase Assay. […] Louis, Mo.). In this firefly luciferin-luciferase reaction, only ATP is readily detected since the enzymatic reaction of firefly luciferase to oxidize luciferin is specific for ATP relative to all other nucleotides. Samples were injected with the ATP assay mixture and recordings were made in a LuminoskanRS (LabSystems, Franklin, Mass.) over a 10 s period. The response in a given sample or standard was quantified as area under the peak of the response and averaged for duplicate determinations. Data are expressed as picomoles of ATP produced per cell based on standards determined under the same conditions with each experiment. Angiostatin was prepared as described in Sottrup-Jensen, […]., Petersen, T. E. & Magnusson, S. (1978) Progress in Chemical Fibrinolysis and Thrombolysis (Raven Press, New York).

Data set [4] concerns angiostatin binding site on HUVEC. Nature of the data set: Competition binding assay, 125I-labeled angiostatin on HUVEC. Set-up: species or system human. The procedure: FIG. 6. Competition binding assay between angiostatin and the antibody against the alpha subunit of ATP synthase from E. coli. […] Cells were washed and remaining bound radioactivity was quantified by γ-counting. Non-specific binding was measured in the presence of excess unlabeled angiostatin and was subtracted from total binding. […] Competition studies were also performed simultaneously using rabbit pre-immune serum to account for non-specific inhibition. Error bars represent standard deviation. A 1 tailed homoscedastic t test was used for statistical analysis; p<0.10.
Binding Assays. Ligands were radioiodinated by using Iodobeads (Pierce), repurified on L-lysine-Sepharose, eluted with 100 mM ε-aminocaproic acid, and dialyzed in PBS, pH 7.0 before use in binding assays. […] Nonspecific binding was measured in the presence of excess unlabeled ligand.

Data set [5] concerns HUVEC. In words: Direct binding of 125I-labeled plasminogen or angiostatin to endothelial cells, Scatchard analysis. The note with it: 125I-labeled ligand, 1 h at 4° C., read-out: apparent dissociation constant (Kd). Set-up: species or system human. As for the experimental part: FIGS. 1A and 1B. Direct binding assay and Scatchard analysis of plasminogen and angiostatin with endothelial cells. HUVEC were plated at a density of 10,000 cells/well and incubated with increasing concentrations of ^125I-labeled-plasminogen or angiostatin. FIG. 1A. ^125I-labeled plasminogen binding was concentration-dependent and saturable with an apparent dissociation constant ([…]) of 158 nM and 870,000 sites/cell. FIG. 1B. […] Error bars represent standard deviation.
(§1) Binding Assays. Ligands were radioiodinated by using Iodobeads (Pierce), repurified on L-lysine-Sepharose, eluted with 100 mM ε-aminocaproic acid, and dialyzed in PBS, pH 7.0 before use in binding assays. HUVEC were plated at a density of 5,000 or 10,000 cells/well and incubated with increasing concentrations of ^125I-labeled ligand in media containing 1% BSA for 1 h at 4° C. in 96-well plates. Wells were washed, and remaining bound radioactivity was quantified by using an LKB 1272 γ-radiation counter. Nonspecific binding was measured in the presence of excess unlabeled ligand.

Data set [6] has as its target T3, recombinant alpha subunit of human ATP synthase (Homo sapiens, UniProt P25705).
T3 construct: His tag; made in house; host or cells: E. coli BL21DE3
Nature of the data set: Ligand blot binding to the recombinant alpha subunit of ATP synthase. As for the experimental part: FIGS. 7A-7E. Angiostatin binding to the recombinant alpha subunit of human ATP synthase. The alpha subunit of human ATP synthase was cloned and expressed in E. coli and purified using Qiagen's nickel-Sepharose protein purification system before dialyzing in phosphate buffered saline (PBS), pH 7.0. Recombinant protein was electrophoresed on 5-15% SDS-PAGE, electroblotted onto Immobilon™ membrane and incubated 18 h in 10 mM Tris-HCl, 0.15M NaCl, 0.05% NP40, pH 7.5 (TSN) containing ^125I-angiostatin. For competition studies, unlabeled ligand was added 4 h prior to radiolabeled ligand. Blots were washed in TSN buffer containing 0.05% Tween80 and bound radioactivity was quantified on a Molecular Dynamics PhosphorImager™.
Purification of the alpha-Subunit of ATP Synthase. Competent E. coli BL21DE3 were transformed with the pET24a(+) vector containing the alpha subunit, plated on 2× Bacto-yeast tryptone (YT) agarose, and grown overnight at 37° C. Twenty milliliters of 2× YT containing […] kanamycin was inoculated with one colony and grown overnight at 37° C. (200 rpm). A 1-liter culture (2× YT, […] kanamycin) was inoculated with 20 ml of the noninduced overnight culture and grown at 37° C. to an OD of 0.6 at a wavelength of 600 nm. Isopropyl […] was added to a final concentration of 1 mM and grown for an additional 3 h. Cells were harvested by centrifugation at 8,000 rpm for 10 min and stored overnight at −20° C. Lysates were prepared under denaturing conditions and batch-purified by using Qiagen Ni-NTA agarose. Resulting protein was dialyzed against PBS, pH 7.0 for use in all experiments.

Data set [7] has as its system plasminogen binding sites on HUVEC. Nature of the data set: Competition binding assay, 125I-labeled plasminogen on HUVEC. Set-up: species or system human. The note with it: 1.0 μM 125I-labeled plasminogen; 25-fold molar excess of unlabeled plasminogen. The procedure: FIG. 2. Competition binding assay between plasminogen and angiostatin. HUVEC were plated at a density of 10,000 cells/well and incubated with 1.0 μM ^125I-labeled plasminogen in the presence of 100-fold molar excess of unlabeled angiostatin for 1 h at 4° C. Cells were washed and the remaining radioactivity was quantified by γ-counting.
as §1

Entries after “also recorded” stand apart in the source; their conditions may differ.

Regarding `C[C@@H]1C[C@@H]([C@H](O)CC2CC(=O)NC(=O)C2)C(=O)[C@@H](C)C1` [Cycloheximide], the inhibition at 10 µg/mL in the data set on HUVEC [1] (Homo sapiens, HUVEC, 24 h, read-out: Percent Inhibition (+/− S.E.M.) of HUVEC proliferation) was 100%. Further, in the data set with HUVEC [1] (compared with untreated cells, data not shown), the “cellular morphology of treated cells” value is “obvious rounded morphology”.

For the compound `[N-]=[N+]=[N-].[Na+]` [NaN3, reference compound], in data set [2], the “inhibition of purified F1 ATPase activity” value is “completely inhibited”.

On to `CC[C@H]1/C=C/C=C/C[C@@H](C)[C@H](O)[C@@](C)(O)C(=O)[C@@H](C)[C@H](O)[C@@H](C)C(=O)[C@@H](C)[C@H](O)[C@@H](C)/C=C/C(=O)O[C@@H]2[C@H](C)[C@H](CC1)O[C@]1(CC[C@H](C)[C@H](C[C@@H](C)O)O1)[C@H]2C` [Oligomycin, reference compound], for which the inhibition at 100 µg/mL in data set [3] (HUVEC, read-out: Percent Inhibition (+/− S.E.M.) of ATP generation) was 84%. For the same compound, the “Percent Inhibition (+/− S.E.M.) of ATP generation” value in data set [3] was 83.5 +/− 4.5%.

In the case of `NCCCCCC(=O)O` [ε-aminocaproic acid, reference compound], the “inhibition of 125I-labeled angiostatin binding” value in data set [4] (100 mM ε-aminocaproic acid, data not shown) was “only slightly inhibited”.

On to “plasminogen: purified from human plasma by affinity chromatography, 92 kDa”, for which the Kd in the data set on HUVEC [5] amounted to 158 nM. Further, the “inhibition of 125I-labeled angiostatin binding to recombinant alpha subunit” value in data set [6] (0.5 nM 125I-labeled angiostatin, 2500-fold molar excess of unlabeled plasminogen) is on record as “not inhibited”. Besides, in data set [6] (ligand blot), the “binding of 125I-labeled ligand to recombinant alpha subunit” value was “did not bind”. For the same compound, the “inhibition of 125I-labeled angiostatin binding” value in data set [4] (excess unlabeled plasminogen (2-fold molar excess in FIG. 2 legend)) is listed as “little or no effect; also recorded: no inhibition”. The “inhibition of 125I-labeled plasminogen binding” value in data set [7] is recorded as “about 80%”.

The values above are taken from patent publication US20040022788A1, “Compositions and methods for promoting or inhibiting angiogenesis” (priority 1998, published 2004).
